Active and inactive are the calls of the source. The rule behind the calls is not given here.
Tests used:
[1] = system: K562; assay: Cell cycle arrest in human K562 cells assessed as decrease in accumulation at G2/M phase at 15.9 uM after 24 hrs using propidium iodide staining by flow cytometry; assay type: functional, cell-based
[2] = system: MOLT-4; assay: Growth inhibition of human MOLT4 cells after 48 hrs by SRB assay; assay type: functional; conditions: MOLT-4, 48 h; for CC50: read-out: LC50 (the source's name)
[3] = system: CCRF-CEM; assay: Growth inhibition of human CCRF-CEM cells after 48 hrs by SRB assay; assay type: functional
[4] = system: EKVX; assay: Growth inhibition of human EKVX cells after 48 hrs by SRB assay; assay type: functional
[5] = system: K562; assay: Decrease in total phosphorylated retinoblastoma protein level in human K562 cells at 34 uM after 24 hrs by flow cytometry; assay type: functional, cell-based
[6] = system: HOP-62; assay: Growth inhibition of human HOP62 cells after 48 hrs by SRB assay; assay type: functional; conditions: HOP-62, 48 h
[7] = system: SK-MEL-28; assay: Growth inhibition of human SK-MEL-28 cells after 48 hrs by SRB assay; assay type: functional; conditions: SK-MEL-28, 48 h
[8] = system: NCI-H460; assay: Growth inhibition of human NCI-H460 cells after 48 hrs by SRB assay; assay type: functional; conditions: NCI-H460, 48 h
[9] = system: K562; assay: Cell cycle arrest in human K562 cells assessed as decrease in accumulation at S phase at 15.9 uM after 24 hrs using propidium iodide staining by flow cytometry; assay type: functional, cell-based
[10] = system: SF-295; assay: Growth inhibition of human SF295 cells after 48 hrs by SRB assay; assay type: functional; conditions: SF-295, 48 h
[11] = system: SK-OV-3; assay: Growth inhibition of human SKOV3 cells after 48 hrs by SRB assay; assay type: functional; conditions: SK-OV-3, 48 h
[12] = system: SNB-19; assay: Growth inhibition of human SNB19 cells after 48 hrs by SRB assay; assay type: functional; conditions: SNB-19, 48 h
[13] = system: UO-31; assay: Growth inhibition of human UO31 cells after 48 hrs by SRB assay; assay type: functional; conditions: UO-31, 48 h
[14] = system: K562; assay: Cell cycle arrest in human K562 cells assessed as accumulation at G0/G1 phase at 15.9 uM after 24 hrs using propidium iodide staining by flow cytometry; assay type: functional, cell-based
[15] = system: SF-539; assay: Growth inhibition of human SF539 cells after 48 hrs by SRB assay; assay type: functional; conditions: SF-539, 48 h
[16] = system: HOP-92; assay: Growth inhibition of human HOP92 cells after 48 hrs by SRB assay; assay type: functional; conditions: HOP-92, 48 h
[17] = system: SF-268; assay: Growth inhibition of human SF268 cells after 48 hrs by SRB assay; assay type: functional; conditions: SF-268, 48 h
[18] = system: K562; assay: Decrease in total phosphorylated retinoblastoma protein level in human K562 cells at 14 uM after 24 hrs by flow cytometry; assay type: functional, cell-based
[19] = system: SK-MEL-2; assay: Growth inhibition of human SK-MEL-2 cells after 48 hrs by SRB assay; assay type: functional; conditions: SK-MEL-2, 48 h
[20] = system: K562; assay: Cell cycle arrest in human K562 cells assessed as accumulation at G0/G1 phase at 1.2 uM after 24 hrs using propidium iodide staining by flow cytometry; assay type: functional, cell-based
[21] = system: K562; assay: Cell cycle arrest in human K562 cells assessed as decrease in accumulation at S phase at 1.2 uM after 24 hrs using propidium iodide staining by flow cytometry; assay type: functional, cell-based
[22] = system: K562; assay: Cell cycle arrest in human K562 cells assessed as decrease in accumulation at G2/M phase at 1.2 uM after 24 hrs using propidium iodide staining by flow cytometry; assay type: functional, cell-based
[23] = read-out: LC50 (the source's name)

Row | Compound | GI50 [2] [µM] | TGI [2] [µM] | CC50 [2] [µM] | GI50 [4] [µM] | GI50 [6] [µM] | GI50 [7] [µM] | GI50 [8] [µM] | GI50 [10] [µM] | GI50 [11] [µM] | GI50 [12] [µM] | GI50 [13] [µM] | GI50 [15] [µM] | GI50 [16] [µM] | GI50 [17] [µM] | other results
1 | CCCCOc1ccc(NC(=O)n2nc(N)c3ccccc32)cc1 | 4.48 | 46.2 | > 100 | 13.3 | 20.8 | 32.6 | 15.7 | 21.7 | 44 | 42.7 | 17.5 | 17.8 | 18.6 | 25.8 | Activity [1]: Active; GI50 [3]: 0.213 µM; LC50 [3]: > 100 µM; TGI [3]: 17.5 µM; Activity [5]: Active; Activity [9]: Active; Activity [14]: Active
2 | Nc1nn(C(=O)Nc2ccc(Cc3ccccc3)cc2)c2ccccc12 | 0.636 | 20.4 | > 100 | 11.2 | 13.7 | 11.5 | 0.408 | 0.53 | 36.9 | 22.8 | 0.347 | 0.495 | 14.2 | 4.66 | Activity [18]: Active; TGI [8]: 13 µM; CC50 [8, 23]: 84.6 µM; TGI [10]: > 100 µM; CC50 [10, 23]: > 100 µM; TGI [13]: > 100 µM; CC50 [13, 23]: > 100 µM; GI50 [19]: 36.4 µM; Activity [20]: Active; TGI [15]: 5.36 µM; CC50 [15, 23]: > 100 µM; Activity [21]: Active; Activity [22]: Active
